Test results: patent EP0214009A2, “Enaminones as potential prodrugs of primary and secondary amines” (priority 1985, dated 1987)
Like-named read-outs stand apart in the source and are kept apart here.

Assays:
[1] = Hydrolysis in the presence of porcine liver esterase (half-lives, Michaelis-Menten parameters from Lineweaver Burk plots); assay type: in vitro ADME; settings: pig; 60 × 10⁻⁴ units/ml porcine liver esterase, initial substrate concentration 16 µM, pH 7.4, 25°C; read-out: apparent half lives in the presence of porcine liver esterase
Porcine liver esterase = assay: as above; assay type: in vitro ADME
[2] = Hydrolysis in the presence of rat intestinal homogenates; assay type: in vitro ADME
[3] = Chemical hydrolysis in isotonic Sorensen phosphate buffer, followed spectrophotometrically; assay type: physicochemical; settings: pH 7.4, 25°C, no enzyme, read-out: apparent half lives for chemical hydrolysis
[4] = Hydrolysis in the presence of human plasma; assay type: in vitro ADME
[5] = Hydrolysis in the presence of rat plasma; assay type: in vitro ADME
carbonic anhydrase = assay: Hydrolysis in the presence of carbonic anhydrase; assay type: in vitro ADME
[6] = Hydrolysis in the presence of rat liver homogenates; assay type: in vitro ADME

CCOC(=O)C1=C(Nc2ccccc2)CCCC1 [Example 2, Ethyl 2-(N-phenylamino)-l-cyclohexene-l-carboxylate]
half-life at 16 µM [1]: 10 min | Km (Porcine liver esterase; average over the three enzyme concentrations, read-out: Average Km): 7.2 mM | Vmax ± S.D. (Porcine liver esterase; enzyme concentration 16.7 (Units/ml x 10^4)): 45.5 ± 3 mM/h | Km (Porcine liver esterase; enzyme concentration 16.7 (Units/ml x 10^4), read-out: Km ± S.D.): 11.2 ± 0.1 mM | Vmax ± S.D. (Porcine liver esterase; enzyme concentration 32.4 (Units/ml x 10^4)): 56.8 ± 8 mM/h | Km (Porcine liver esterase; enzyme concentration 32.4 (Units/ml x 10^4), read-out: Km ± S.D.): 5.3 ± 0.2 mM | Vmax ± S.D. (Porcine liver esterase; enzyme concentration 61.2 (Units/ml x 10^4)): 95.2 ± 10 mM/h | Km (Porcine liver esterase; enzyme concentration 61.2 (Units/ml x 10^4), read-out: Km ± S.D.): 5.2 ± 0.2 mM | Catalysis of the hydrolysis [2]: not observed | half-life [3]: 18 min | Catalysis of the hydrolysis [4]: not observed | Catalysis of the hydrolysis [5]: not observed | Catalysis of the hydrolysis (carbonic anhydrase): not observed | Catalysis of the hydrolysis [6]: not observed
